Results taken from patent US8426429B2, “2-amino-quinazoline derivatives useful as inhibitors of β-secretase (BACE)” (Jansssen Pharmaceutica N.V., priority 2004, dated 2013).

Assays:
β-secretase (BACE) [1] = target: T1, β-secretase (BACE) (Homo sapiens, UniProt P56817); assay: BACE % Inhibition Assay ((Aedens)-[…]-(Dabcyl K-amide) substrate); assay type: biochemical; details: % error ±10%
T1 construct: purchased Panvera
Experimental: The substrate stock solution was prepared in DMSO as a 10 mg/mL solution. The substrate working solution was prepared by diluting the 10 mg/mL stock solution with substrate assay buffer to a final concentration of […]. The β-secretase (BACE) working solution was prepared by diluting a 0.83 mg/mL BACE stock solution with enzyme assay buffer to a final concentration of 4 μg/mL.
Test compounds were dissolved in DMSO to 10 mM.
The screening procedure for this assay was as follows: 15 μL of BACE working solution was pipetted into each well of a 96-well plate. To each well was then pipetted 2 μL of test compound at the selected concentration. Test compound and BACE were then mixed with a pipettor and incubated for 20 min at room temperature. To each well was then added 10 μL of the substrate working solution. The plates were then incubated for 1 hour at room temperature.
The procedure for the blank was as follows. 15 μL of assay buffer was pipetted into each well to be used as a blank control. To each well was then added 2 μL of vehicle and 10 μL of substrate working solution. The plates were then incubated for 1 hour at room temperature.
The procedure for the positive control was as follows: 15 μl of BACE working solution was pipetted into each well to be used as a positive control. To each well was then pipetted 2 μL of vehicle. Vehicle and BACE were then mixed with a pipettor and incubated for 20 min at room temperature. To each well was then added 10 μL of the substrate working solution. The plates were the incubated for 1 hour at room temperature.
For test compounds, % inhibition was determined at each concentration as follows: […]

β-secretase (BACE) [2] = target: T1, β-secretase (BACE); assay: BACE FS1 % Inhibition Assay; assay type: biochemical; details: FS1 substrate
Procedure, shortened: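 Percent inhibition per compound concentration was referenced to vehicle-treated enzyme and no-enzyme wells. Enzyme at a 4 μg/mL working stock plus compound was mixed for 20 min at room temperature before the FS1 substrate (300 μg/mL working stock) was added for a 1 h room-temperature reaction.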

T1 sequence (P56817 46-501): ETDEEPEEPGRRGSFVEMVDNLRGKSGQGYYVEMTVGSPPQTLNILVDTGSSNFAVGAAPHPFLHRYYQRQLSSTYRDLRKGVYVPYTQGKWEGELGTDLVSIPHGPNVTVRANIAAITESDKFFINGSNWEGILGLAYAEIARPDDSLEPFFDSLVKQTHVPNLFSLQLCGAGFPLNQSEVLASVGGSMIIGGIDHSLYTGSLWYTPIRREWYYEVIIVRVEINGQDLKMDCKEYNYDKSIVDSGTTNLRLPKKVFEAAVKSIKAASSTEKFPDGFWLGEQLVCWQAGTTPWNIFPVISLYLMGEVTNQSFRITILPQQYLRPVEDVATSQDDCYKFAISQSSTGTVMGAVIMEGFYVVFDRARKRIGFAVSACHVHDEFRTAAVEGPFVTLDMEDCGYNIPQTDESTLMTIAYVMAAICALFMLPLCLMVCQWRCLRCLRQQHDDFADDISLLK

Row | % Inhibition (β-secretase (BACE) [1]; 3 μM compound) [%] | % Inhibition (β-secretase (BACE) [1]; 10 μM compound) [%] | % Inhibition (FS) (β-secretase (BACE) [2]; 0.3 μM compound) [%] | % Inhibition (FS) (β-secretase (BACE) [2]; 1 μM compound) [%] | % Inhibition (FS) (β-secretase (BACE) [2]; 3 μM compound) [%] | SMILES | further results
1 | <30 | <30 |  |  |  | CCOC(=O)CCN1Cc2cc(Oc3ccccc3)ccc2N=C1N [Compound 65] | 
2 | <30 | <30 |  |  |  | CN(C(=O)[C@@H]1CCC[C@@H]1N1Cc2cc(Oc3ccccc3)ccc2N=C1N)C1CCCCC1 [Compound 72] | 
3 | <30 | <30 |  |  |  | CN(C(=O)[C@@H]1CC[C@H](N2Cc3cc(Oc4ccccc4)ccc3N=C2N)C1)C1CCCCC1 [Compound 77] | 
4 | <30 | <30 |  |  |  | CCN(CC)CCN1Cc2cc(Oc3ccccc3)ccc2N=C1N [Compound 79] | 
5 | <30 | <30 |  |  |  | CN(C(=O)[C@H]1CCCC[C@H]1N1Cc2cc(Oc3ccccc3)ccc2N=C1N)C1CCCCC1 [Compound 81] | 
6 | <30 | <30 |  |  |  | CN(C(=O)[C@@H]1CCCC[C@@H]1N1Cc2cc(Oc3ccccc3)ccc2N=C1N)C1CCCCC1 [Compound 87] | 
7 | <30 | <30 |  |  |  | CN(C(=O)[C@@H]1CCCN1C(=O)CN1Cc2cc(Oc3ccccc3)ccc2N=C1N)C1CCCCC1 [Compound 88] | 
8 | 77 | 81 |  |  |  | CN(C(=O)c1cc(CN2Cc3cc(Oc4ccccc4)ccc3N=C2N)ccn1)C1CCCCC1 [Compound 89] | 
9 | <30 | <30 |  |  |  | CC(C)(C)OC(=O)N1CCC(N2Cc3cc(Oc4ccccc4)ccc3N=C2N)C1 (stereo not shown) [Compound 93] | 
10 | <30 | <30 |  |  |  | CN(C(=O)c1cccc(N2Cc3cc(Oc4ccccc4)ccc3N=C2N)c1)C1CCCCC1 [Compound 94] | 
11 | <30 | 53 |  |  |  | CN(C(=O)c1ccc(CN2Cc3cc(Oc4ccccc4)ccc3N=C2N)cc1)C1CCCCC1 [Compound 97] | 
12 | <30 | <30 |  |  |  | CN(C(=O)C1CCC(CN2Cc3cc(Oc4ccccc4)ccc3N=C2N)CC1)C1CCCCC1 (stereo not shown) [Compound 100] | 
13 | <30 | 58 |  |  |  | Cc1ccc(S(=O)(=O)NCCN2Cc3cc(Oc4ccccc4)ccc3N=C2N)cc1 [Compound 109] | 
14 |  |  | <30 | <30 | <30 | NC1=Nc2ccc(C3=CCCC3)cc2CN1CCNC(=O)C1CCC(C(F)(F)F)CC1 (stereo not shown) [Compound 707] | 
15 |  |  | <30 | <30 | 72 | COc1ccccc1-c1ccc2c(c1)CN([C@@H](CCC(=O)N(C)Cc1csc(-c3ccccc3)n1)C1CCCCC1)C(N)=N2 [Compound 716] | 
16 |  |  | 33 | 39 | 72 | COc1ccccc1-c1ccc2c(c1)CN([C@@H](CCC(=O)N(C)Cc1cnn(-c3ccccc3)c1)C1CCCCC1)C(N)=N2 [Compound 717] | 
17 |  |  | <30 | 30 |  | COc1ccccc1-c1ccc2c(c1)CN([C@@H](CCC(=O)N(C)Cc1cc(C)no1)C1CCCCC1)C(N)=N2 [Compound 718] | 
18 |  |  | 31 | <30 | 81 | COc1ccccc1-c1ccc2c(c1)CN([C@@H](CCC(=O)N(C)Cc1cc(-c3ccccc3)on1)C1CCCCC1)C(N)=N2 [Compound 719] | 
19 |  |  | 35 | 35 | 78 | CN(Cc1csc(-c2ccccc2)n1)C(=O)CC[C@@H](C1CCCCC1)N1Cc2cc(-c3ccccc3F)ccc2N=C1N [Compound 722] | 
20 |  |  | 38 | <30 | 65 | CN(Cc1cc(-c2ccccc2)on1)C(=O)CC[C@@H](C1CCCCC1)N1Cc2cc(-c3ccccc3F)ccc2N=C1N [Compound 724] | 
21 |  |  | 46 | 80 |  | CN(CCc1ccccc1)C(=O)CC[C@@H](C1CCCCC1)N1Cc2cc(-c3ccccc3F)ccc2N=C1N [Compound 727] | 

Row | % Inhibition (β-secretase (BACE) [1]; 3 μM compound) [%] | % Inhibition (β-secretase (BACE) [1]; 10 μM compound) [%] | % Inhibition (FS) (β-secretase (BACE) [2]; 0.3 μM compound) [%] | % Inhibition (FS) (β-secretase (BACE) [2]; 1 μM compound) [%] | % Inhibition (FS) (β-secretase (BACE) [2]; 3 μM compound) [%] | SMILES | further results
22 |  |  |  |  |  | CCOC(=O)C1CCC(N(C)C(=O)CCC(C2CCCCC2)N2Cc3cc(Oc4ccccc4)ccc3N=C2N)CC1 (stereo not shown) [Compound 737] | % Inhibition (FS) (β-secretase (BACE) [2]; 0.3 μM compound, 0.3 µM): 22%; % Inhibition (FS) (β-secretase (BACE) [2]; 1 μM compound, 1 µM): 34%; % Inhibition (FS) (β-secretase (BACE) [2]; 3 μM compound, 3 µM): 97%
23 |  |  | 14 | 28 | 61 | CN(C(=O)CCC(C)(C)N1Cc2cc(Oc3ccccc3)ccc2N=C1N)C1CCCCC1 [Compound 738] | 
24 |  |  | −48 | −38 | −25 | CN(C(=O)CCC(C1CCCCC1)N1Cc2cc(Oc3ccccc3)ccc2N=C1N)C1(C(=O)O)CCCCC1 (stereo not shown) [Compound 741] | 
25 |  |  |  |  | 130 | CN(C(=O)CCC(C1CCOCC1)N1Cc2cc(Oc3ccccc3)ccc2N=C1N)C1CCC(C(=O)O)CC1 (stereo not shown) [Compound 743] | 
26 |  |  |  |  |  | CN(C(=O)CC[C@@H](C1CCOCC1)N1Cc2cc(Oc3ccccc3)ccc2N=C1N)[C@H]1CC[C@@H](C(=O)O)CC1 [Compound 745, (S)-Enantiomer of 4-cis-{[4-(2-Amino-6-phenoxy-4H-quinazolin-3-yl)-4-(tetrahydro-pyran-4-yl)-butyryl]-methyl-amino}-cyclohexanecarboxylic acid] | % Inhibition (FS) (β-secretase (BACE) [2]; 0.3 μM compound, 0.3 µM): 115%; % Inhibition (FS) (β-secretase (BACE) [2]; 1 μM compound, 1 µM): 114%; inhibition at 3 µM (β-secretase (BACE) [2]; 3 μM compound, read-out: % Inhibition (FS)): 114%
27 |  |  |  |  |  | CN(C(=O)CC[C@@H](C1CCOCC1)N1Cc2cc(Oc3ccccc3)ccc2N=C1N)[C@H]1CC[C@@H](C(=O)O)CC1 [Compound 748] | % Inhibition (FS) (β-secretase (BACE) [2]; 0.3 μM compound, 0.3 µM): 20%; % Inhibition (FS) (β-secretase (BACE) [2]; 1 μM compound, 1 µM): 71%; % Inhibition (FS) (β-secretase (BACE) [2]; 3 μM compound, 3 µM): 97%
28 |  |  | 8 | 35 | 89 | CN(C(=O)CC[C@@H](C1CCCCC1)N1Cc2ccc(Oc3ccccc3)cc2N=C1N)C1CCCCC1 [Compound 754] | 
29 |  |  | <30 | 44 | 89 | CN(C(=O)CCC(C1CCCCC1)N1Cc2cc(Oc3ccccc3)ccc2N=C1N)C1CCC(C(=O)OCc2ccccc2)CC1 (stereo not shown) [Compound 760] | 
30 |  |  |  |  |  | CCOC(=O)C1CCC(N(C)C(=O)CCC(C2CCCCC2)N2Cc3cc(Oc4ccccc4)ccc3N=C2N)CC1 (stereo not shown) [Compound 763] | % Inhibition (FS) (β-secretase (BACE) [2]; 0.3 μM compound, 0.3 µM): <30%; % Inhibition (FS) (β-secretase (BACE) [2]; 1 μM compound, 1 µM): 84%
31 |  |  | <30 | 56 | 97 | CNC(=O)C1CCC(N(C)C(=O)CCC(C2CCCCC2)N2Cc3cc(Oc4ccccc4)ccc3N=C2N)CC1 (stereo not shown) [Compound 765] | 
32 |  |  | <30 | <30 | <30 | CN(C(=O)CCC(C1CCCCC1)N1Cc2cc(Oc3ccccc3)ccc2N=C1N)c1ccc(C(=O)O)cc1 (stereo not shown) [Compound 766] | 
33 |  |  | <30 | 71 |  | CN(CC(=O)O)C(=O)CCC(C1CCCCC1)N1Cc2cc(Oc3ccccc3)ccc2N=C1N (stereo not shown) [Compound 767] | 
34 |  |  | <30 | 61 |  | CN(C(=O)CCC(C1CCCCC1)N1Cc2cc(Oc3ccccc3)ccc2N=C1N)C1CCC(C#N)CC1 (stereo not shown) [Compound 769] | 
35 |  |  | <30 | <30 | <30 | CN(C(=O)CCC(C1CCCCC1)N1Cc2cc(Oc3ccccc3)ccc2N=C1N)C1CCC(c2nn[nH]n2)CC1 (stereo not shown) [Compound 770] | 
36 |  |  | 46 | 79 | 105 | NC1=Nc2ccc(Oc3ccccc3)cc2CN1[C@@H](CCC(=O)N[C@@H](CO)C(=O)O)C1CCOCC1 [Compound 771] | 
37 |  |  | <30 | 62 |  | COC(=O)Cc1cccc(CN(C)C(=O)CCC(C2CCCCC2)N2Cc3cc(Oc4ccccc4)ccc3N=C2N)c1 (stereo not shown) [Compound 775] | 
38 |  |  | <30 | 77 |  | CN(Cc1cccc(CC(=O)O)c1)C(=O)CCC(C1CCCCC1)N1Cc2cc(Oc3ccccc3)ccc2N=C1N (stereo not shown) [Compound 778] | 
39 |  |  | 102 | 107 | 120 | COC(=O)[C@@H](COCc1ccccc1)N(C)C(=O)CC[C@@H](C1CCCCC1)N1Cc2cc(Oc3ccccc3)ccc2N=C1N [Compound 779] | 
40 |  |  | 69 | 97 |  | COC(=O)C(COCc1ccccc1)N(C)C(=O)CCC(C1CCCCC1)N1Cc2cc(Oc3ccccc3)ccc2N=C1N (stereo not shown) [Compound 780] | 
41 |  |  | 104 | 107 | 113 | NC1=Nc2ccc(Oc3ccccc3)cc2CN1[C@@H](CCC(=O)N[C@@H](COCc1ccccc1)C(=O)O)C1CCOCC1 [Compound 782] | 
42 |  |  | 97 | 105 | 114 | COC(=O)[C@H](COCc1ccccc1)N(C)C(=O)CC[C@@H](C1CCOCC1)N1Cc2cc(Oc3ccccc3)ccc2N=C1N [Compound 786] | 
